Data on nine compounds can be found in PubChem BioAssay (NCI).

Common to all, as to assay: DTP human tumour cell line panel, 48 h
The test system of experiment [1] is CAKI-1 renal.
For experiment [2], the system named is COLO 205 colon.
Experiment [3] deals with HCT-15 colon.
In experiment [4] the test system is LOX IMVI melanoma.
The subject of experiment [5] is M14 melanoma.
Experiment [6] has as its system MOLT-4 leukemia.
For experiment [7], the system named is RXF 393 renal.
Experiment [8] has as its system SF-268 CNS.
In experiment [9] the test system is SNB-19 CNS.
Experiment [10] deals with SR leukemia.

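Cells were grown in 96-well plates and exposed to each compound for 48 hours at five concentrations; endpoints were interpolated linearly between bracketing concentrations, or set to the highest concentration if not reached. GI50 = concentration required for 50% inhibition of growth. TGI marks complete inhibition of growth.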

With `O=C(Nc1cccnc1)c1ccc2ccc3ccc(C(=O)Nc4cccnc4)nc3c2n1`, the concentration for 50% growth inhibition (GI50) in [1] is 135 nM; in [2], 135 nM; in [3], 51.8 nM; in experiment [4], 180 nM; in experiment [5], 79.9 nM; in experiment [6], 419 nM. The GI50 was 110 nM in experiment [7], 225 nM in experiment [8], 84.5 nM in [9] and 155 nM in experiment [10]. Also, the total growth inhibition concentration (TGI) in experiment [1], in experiment [2], in experiment [3], in experiment [4], in experiment [5] and in experiment [6] was greater than 100000 nM each time. Besides, the concentration for total growth inhibition (TGI) in experiment [7] is 342 nM; in experiment [8] it was greater than 100000 nM; in experiment [9], greater than 100000 nM; in experiment [10], greater than 100000 nM.
Regarding `O=C1C(=O)N(c2cccc(C(F)(F)F)c2)C(=O)C(=O)C1c1nc2ccccc2s1`, the TGI in experiment [1], in experiment [2], in experiment [3], in [4], in experiment [5] and in experiment [6] was greater than 100000 nM throughout. For the same compound, the TGI in experiment [7] was greater than 100000 nM; in experiment [8], greater than 100000 nM; in [9] it was greater than 100000 nM; in [10], 83600 nM.
On to `O=C(Cn1c(C(=O)c2ccccc2)nc2ccccc21)c1ccc(F)cc1`, for which the concentration for total growth inhibition (TGI) in [1] is greater than 30900 nM; in experiment [2], greater than 64500 nM; in experiment [3], greater than 100000 nM; in [4], greater than 100000 nM; in experiment [5], greater than 100000 nM; in [6] it was greater than 28100 nM. Besides, the concentration for total growth inhibition (TGI) is greater than 56900 nM in [7], greater than 100000 nM in experiment [8] and greater than 100000 nM in experiment [9]. Besides, the GI50 in [2] is 17900 nM; in experiment [3] it was 3560 nM; in [4], 7260 nM; in experiment [5], 3670 nM; in [6] it was 2490 nM; in experiment [7], 7290 nM. Moreover, the GI50 was 19600 nM in [8], 25200 nM in experiment [9] and 1210 nM in experiment [10].
As for `C=C1NC(=O)C(CC(C(=O)C(=O)Nc2c(C)cccc2C(C)(C)C)C(=O)c2ccc3ccccc3c2)C(=O)N1` (stereo not drawn), the concentration for total growth inhibition (TGI) in [1], in experiment [2], in [3], in experiment [4], in [5] and in [6] was greater than 100000 nM in each case. The TGI in experiment [7], in experiment [8], in experiment [9] and in [10] was greater than 100000 nM in each case.
For `CCOc1c(C#N)c2c(N)ncnc2n1C1OC(CO)C(O)C1O` (stereo not drawn), the GI50 in experiment [1] was 3130 nM; in [2] it was 2170 nM; in [3], 2150 nM; in experiment [4] it was 2980 nM; in experiment [5], 1920 nM; in experiment [6], 2950 nM. The GI50 was 2270 nM in experiment [7], 3370 nM in experiment [8], 9100 nM in [9] and 1300 nM in experiment [10]. In addition, the TGI in [1] was 55900 nM; in experiment [2] it was 10000 nM; in experiment [3], greater than 100000 nM; in [4] it was greater than 100000 nM; in experiment [5] it was 5570 nM; in experiment [6], 15100 nM. Moreover, the TGI in [7] is 6640 nM; in experiment [8] it was 65400 nM; in [9], greater than 100000 nM; in experiment [10], 5500 nM.
In the case of `CC(=O)O[C@H]1C(=O)[C@@]2(C)[C@H]([C@H](OC(=O)c3ccccc3)[C@@]3(O)C[C@H](O)C(C)=C1C3(C)C)[C@]1(OC(C)=O)CO[C@@H]1C[C@@H]2O`, the TGI is greater than 100000 nM in experiment [1]; 81500 nM in [2]; greater than 100000 nM in experiment [3]; greater than 100000 nM in experiment [4]; 74800 nM in experiment [5]; greater than 100000 nM in experiment [6]. The total growth inhibition concentration (TGI) in experiment [7], in [8], in experiment [9] and in experiment [10] was greater than 100000 nM throughout.
Take `CN1CCN(Cc2ccc(NC(=O)c3cncc(C#Cc4cnn5ccccc45)c3)cc2C(F)(F)F)CC1`: the GI50 is 940 nM in experiment [1]; 291 nM in experiment [2]; 818 nM in experiment [3]; 588 nM in experiment [4]; 576 nM in experiment [5]; 358 nM in experiment [6]. For the same compound, the GI50 in experiment [7] is 693 nM; in [8], 1050 nM; in experiment [9], 1580 nM; in experiment [10], 322 nM. Besides, the TGI in [1] was 4560 nM; in [2], 1050 nM; in experiment [3] it was 3660 nM; in experiment [4], 1370 nM; in experiment [5] it was 1390 nM; in experiment [6], 3560 nM. Also, the TGI in experiment [7] is 1660 nM; in experiment [8] it was 2540 nM; in experiment [9] it was 5030 nM; in experiment [10], 2820 nM.
On to `CCOC(=O)c1cc(-c2ccc(OC)c(OC)c2)[nH]c1N/N=C/c1c(Cl)cccc1Cl`, for which the GI50 is 1590 nM in experiment [1]; 2900 nM in experiment [2]; 2380 nM in [3]; 3600 nM in [4]; 2320 nM in experiment [5]; 3270 nM in experiment [6]. The GI50 was 1910 nM in [7], 2290 nM in [8], 2600 nM in experiment [9] and 410 nM in [10]. Also, the concentration for total growth inhibition (TGI) was 11400 nM in [1]; greater than 100000 nM in experiment [2]; 10700 nM in [3]; 20500 nM in experiment [4]; 14900 nM in experiment [5]; greater than 80900 nM in experiment [6]. For the same compound, the total growth inhibition concentration (TGI) in experiment [7] came to 9770 nM; in experiment [8], 39900 nM; in [9], 34200 nM; in experiment [10], 1930 nM.
As to `CCC[CH2][Sn]([CH2]CCC)([O]C(=O)c1cc(F)cc(F)c1)[O][Sn]([CH2]CCC)([CH2]CCC)[O]C(=O)c1cc(F)cc(F)c1`, the GI50 was 663 nM in [1]; 1050 nM in experiment [2]; 1380 nM in experiment [3]; 1050 nM in [4]; 1480 nM in experiment [5]; 318 nM in experiment [6]. In addition, the 50% growth inhibitory concentration (GI50) in experiment [7] was 423 nM; in [8], 910 nM; in experiment [9], 1520 nM; in experiment [10], 372 nM. Moreover, the TGI in [1] is 1950 nM; in [2], 2340 nM; in experiment [3], 2790 nM; in experiment [4], 2350 nM; in experiment [5], 2810 nM; in [6] it was 2150 nM. Besides, the concentration for total growth inhibition (TGI) worked out at 1560 nM in [7], 2190 nM in experiment [8], 2860 nM in experiment [9] and 4320 nM in [10].

The GI50 is the concentration that inhibits growth by half. A word on the TGI: it is the concentration giving total growth inhibition. A high value points to lower sensitivity of the cells.
